Experimental data taken from patent publication US12673041B2, “4-aminobut-2-enamide derivatives and salt thereof” (TAIHO PHARMACEUTICAL CO., LTD., priority 2019, dated 2026).
pIC50: −log10 of the molar value.

What was measured:
[1] = biological target: Gppcp-bound recombinant K-Ras4B G12C mutant protein (amino acids 1-169, C51S/C80L/C118S) (Homo sapiens, UniProt P01116, C118S/C51S/C80L/G12C); assay: KRASG12C binding assay (LC-MS compound binding rate); settings: test compound final concentration 0.5 μM, 25° C., 1 hour
Procedure: As test compounds for the KRASG12C binding assay, the compounds obtained in the “Preparation of Compounds” section were used. Sample solutions each containing a test compound were prepared in the form of a 10 mM DMSO solution.
Gppcp-bound recombinant K-Ras4B G12C mutant protein (amino acids 1-169, C51S/C80L/C118S, SEQ ID NO:1) was diluted with a buffer (1×TBS, 0.1 mM TCEP, 0.25 mM MgCl2, 50 μM Gppcp) to prepare a 50 nM protein solution. K-Ras4B is the major splicing variant of K-Ras. Amino acid sequence of residues 1 to 150 including the compounds' binding region of K-Ras4B is exactly same as that of K-Ras4A, the other splicing variant (Oncotarget. 2016 Jul. 19; 7(29): 46717-46733). A sample solution containing 10 mM test compound was diluted ten-fold with DMSO to make a 1 mM sample solution, and then diluted twenty-fold with DMSO to make a 50 μM sample solution. 1 μL of a 50 μM sample solution was added to 100 μL of a 50 nM protein solution to adjust the final concentration of a test compound to be 0.5 μM in the mixture. The mixtures were stored in an incubator at 25° C. for 1 hour, and 10 μL of a 1×TBS solution containing 2% formic acid was added to stop the reaction, followed by LC-MS measurement. LC-MS measurement was performed using Xevo G2-S Q-Tof manufactured by Waters, and reverse-phase chromatography was performed with a desalting column. A mass spectrum of positive ions was obtained by electrospray. For a mass spectrum, a spectrum of polyvalent ions was collectively converted to a molecular weight by using OpenLynx software by the MaxEnt technique, and a compound binding rate was calculated from the ratio of the signal intensity of a peak that corresponds to the molecular weight of the protein to the signal intensity of a peak that corresponds to the molecular weight of the protein conjugated with the compound.
The binding assay of the test compounds was conducted at a final concentration of 0.5 μM. A binding rate of 80% or more is rated “A”, a binding rate of 60% or more and less than 80% is rated “B”, a binding rate of 40% or more and less than 60% is rated “C”, a binding rate of 20% or more and less than 40% is rated “D”, and a binding rate of less than 20% is rated “E”. N.D.=not determined. Binding rate % is the ratio of KRAS signal intensity at the molecular weight of one molecule adduct to the sum of all the KRAS signal intensity (unbound form and adducts) in mass spectrum.
Thus, binding rate 100% means that only the one molecule adduct was observed without any unbound KRAS.

[2] = biological target: T1, GMPPNP-bound KRAS G12C protein and cRAF RAS-binding domain (cRAF-RBD) (Homo sapiens, UniProt P01116, G12C); assay: Inhibitory activity on interaction between KRAS G12C and cRAF (Alpha technology); assay type: biochemical; settings: GMPPNP-bound KRAS G12C incubated with compound at 25° C. for 1 hour, then cRAF-RBD, Alpha signal; read-out: IC50
T1 construct: made in house; host or cells: E. coli
Procedure: Interaction between recombinant K-Ras4B G12C mutant protein (amino acids 1-169, SEQ ID NO:2) and cRAF RAS-binding domain (cRAF-RBD, amino acids 50-132, Jena Biosciences GmbH) was measured using Alpha technology (PerkinElmer Inc.).
Recombinant KRAS G12C protein with an N-terminal His-tag was expressed in E. coli and purified by affinity chromatography. To prepare GTP-bound form and GDP-bound form of KRAS G12C protein, 50 μM KRAS G12C protein was incubated with 1 mM GMPPNP (Guanosine-5′-[(β,γ)-imido]triphosphate, Tetralithium salt) (Jena Bioscience GmbH) and 1 mM GDP, respectively, in a loading buffer (20 mM Tris-HCl (pH 7.5), 50 mM NaCl, 1 mM DTT and 2.5 mM EDTA) for 1 hour on ice. After the incubation, MgCl2 was added to a final concentration of 10 mM, followed by incubation at room temperature for 30 minutes. The mixture was allowed to pass through a NAP-5 column to remove free nucleotides and purified, and the resultant nucleotide-bound KRAS G12C protein was used for compound evaluation.
For the measurement of the inhibitory activity of compounds on interaction between KRAS G12C and cRAF-RBD, GMPPNP-bound KRAS G12C protein was incubated with various concentrations of compound in a reaction buffer (20 mM Tris-HCl (pH 7.5), 100 mM NaCl, 1 mM MgCl2, 1 mM TCEP, 0.1% Tween 20) at 25° C. for 1 hour. After the incubation, recombinant cRAF-RBD and Alpha detection reagents were added and incubated at room temperature for 1.5 hours for binding. Interaction 5 of KRAS G12C and cRAF-RBD was monitored by measuring Alpha signal. Inhibition % was calculated using the signal from the reaction without test compound (DMSO control) as 0% inhibition and the signal from the reaction using GDP-bound KRAS G12C in place of GMPPNP-bound KRAS G12C as 100% inhibition. IC50 values were calculated from dose titration curve using curve fitting by XLfit software (IDBS).

Structure (SMILES)	pIC50 [2]	binding rate [1]
CO[C@H]1CC[C@H](NC/C=C/C(=O)Nc2ccc(C(=O)c3c[nH]c4c(-c5cc6ncn(C)c6cc5C(F)(F)F)cc(Cl)cc34)cc2C#N)CC1 [Example 47, (E)-N-(4-(5-chloro-7-(1-methyl-6-(trifluoromethyl)-1H-benzo[d]imidazol-5-yl)-1H-indole-3-carbonyl)-2-cyanophenyl)-4-(((1r,4r)-4-methoxycyclohexyl)amino)but-2-enamide]	6.25	A (A binding rate of 80% or more is rated “A”)
CO[C@H]1CC[C@H](NC/C=C/C(=O)NC2CCN(C(=O)c3ccc4c(-c5cc6ncn(C)c6cc5C)cccn34)CC2)CC1 [Example 48, (2E)-N-{1-[8-(1,6-dimethyl-1H-1,3-benzodiazol-5-yl)indolizine-3-carbonyl]piperidin-4-yl}-4-{[trans-4-methoxycyclohexyl]amino}but-2-enamide]	< 5.17	E (a binding rate of less than 20% is rated “E”)
Cc1cc(C(=O)c2ccc3c(-c4cc5ncn(C)c5cc4C(F)(F)F)cccn23)cc(C#N)c1NC(=O)/C=C/CNC(C)(C)C [Example 50, (2E)-4-(tert-Butylamino)-N-(2-cyano-6-methyl-4-{8-[1-methyl-6-(trifluoromethyl)-1H-1,3-benzodiazol-5-yl]indolizine-3-carbonyl}phenyl)but-2-enamide]	5.92	E (a binding rate of less than 20% is rated “E”)
Cn1cc2c(Cl)c(-c3cccn4c(C(=O)c5ccc(NC(=O)/C=C/CNC(C)(C)C)c(C#N)c5)ccc34)ccc2n1 [Example 52, (2E)-4-(tert-Butylamino)-N-{4-[8-(4-chloro-2-methyl-2H-indazol-5-yl)indolizine-3-carbonyl]-2-cyanophenyl}but-2-enamide]	6.59	B (a binding rate of 60% or more and less than 80% is rated “B”)
Cc1cc2c(cnn2C)cc1-c1cccn2c(C(=O)c3ccc(NC(=O)/C=C/CNC(C)(C)C)c(C#N)c3)ccc12 [Example 54, (2E)-4-(tert-Butylamino)-N-{2-cyano-4-[8-(1,6-dimethyl-1H-indazol-5-yl)indolizine-3-carbonyl]phenyl}but-2-enamide]	6.74	A (A binding rate of 80% or more is rated “A”)
CO[C@H]1CC[C@H](NC/C=C/C(=O)Nc2ccc(C(=O)c3nn(C)c4c(-c5cc6ncn(C)c6cc5C)cccc34)cc2C#N)CC1 [Example 58, (E)-N-(2-cyano-4-(7-(1,6-dimethyl-1H-benzo[d]imidazol-5-yl)-1-methyl-1H-indazole-3-carbonyl)phenyl)-4-(((1r,4r)-4-methoxycyclohexyl)amino)but-2-enamide]	6.62	B (a binding rate of 60% or more and less than 80% is rated “B”)
C=C(C)c1c(-c2cccn3c(C(=O)c4ccc(NC(=O)/C=C/CNC(C)(C)C)c(C#N)c4)ccc23)c(C)cc2c1ncn2C [Example 61, (E)-4-(tert-butylamino)-N-(2-cyano-4-(8-(1,6-dimethyl-4-(prop-1-en-2-yl)-1H-benzo[d]imidazol-5-yl)indolizine-3-carbonyl)phenyl)but-2-enamide]	6.64	A (A binding rate of 80% or more is rated “A”)
CO[C@H]1CC[C@H](NC/C=C/C(=O)Nc2ccc(C(=O)c3ccc4c(-c5c(C)cc6c(ncn6C)c5-c5cncnc5)cccn34)cc2C#N)CC1 [Example 69, (E)-N-(2-cyano-4-(8-(1,6-dimethyl-4-(pyrimidin-5-yl)-1H-benzo[d]imidazol-5-yl)indolizine-3-carbonyl)phenyl)-4-(((1r,4r)-4-methoxycyclohexyl)amino)but-2-enamide]	6.59	B (a binding rate of 60% or more and less than 80% is rated “B”)
CO[C@H]1CC[C@H](NC/C=C/C(=O)Nc2ccc(C(=O)c3ccc4c(-c5c(Cl)ncn5C(C)C)cccn34)cc2C#N)CC1 [Example 74, (E)-N-(4-(8-(4-chloro-1-isopropyl-1H-imidazol-5-yl)indolizine-3-carbonyl)-2-cyanophenyl)-4-(((1r,4r)-4-methoxycyclohexyl)amino)but-2-enamide]	6.77	B (a binding rate of 60% or more and less than 80% is rated “B”)

These reach a higher pIC50 [2]. Values come first.

pIC50 [2]	Structure (SMILES)	binding rate [1]
6.82	Cc1ccc2c(cnn2C)c1-c1cccn2c(C(=O)c3ccc(NC(=O)/C=C/CNC(C)(C)C)c(C#N)c3)ccc12 [Example 53, (2E)-4-(tert-Butylamino)-N-{2-cyano-4-[8-(1,5-dimethyl-1H-indazol-4-yl)indolizine-3-carbonyl]phenyl}but-2-enamide]	A (A binding rate of 80% or more is rated “A”)
6.80	CO[C@H]1CC[C@H](NC/C=C/C(=O)Nc2ccc(C(=O)c3ncc4c(-c5cc6ncn(C)c6cc5C)cccn34)cc2C#N)CC1 [Example 57, (E)-N-(2-cyano-4-(8-(1,6-dimethyl-1H-benzo[d]imidazol-5-yl)imidazo[1,5-a]pyridine-3-carbonyl)phenyl)-4-(((1r,4r)-4-methoxycyclohexyl)amino)but-2-enamide]	C (a binding rate of 40% or more and less than 60% is rated “C”)
6.85	CO[C@H]1CC[C@H](NC/C=C/C(=O)Nc2ccc(C(=O)c3cc(Cl)c4c(-c5cc6ncn(C)c6cc5C)cccn34)cc2C#N)CC1 [Example 65, (E)-N-(4-(1-chloro-8-(1,6-dimethyl-1H-benzo[d]imidazol-5-yl)indolizine-3-carbonyl)-2-cyanophenyl)-4-(((1r,4r)-4-methoxycyclohexyl)amino)but-2-enamide]	B (a binding rate of 60% or more and less than 80% is rated “B”)
6.85	CO[C@H]1CC[C@H](NC/C=C/C(=O)Nc2ccc(C(=O)c3ccc4c(-c5ccc6nn(C)cc6c5Cl)cccn34)cc2C#N)CC1 [Example 71, (E)-N-(4-(8-(4-chloro-2-methyl-2H-indazol-5-yl)indolizine-3-carbonyl)-2-cyanophenyl)-4-(((1r,4r)-4-methoxycyclohexyl)amino)but-2-enamide]	A (A binding rate of 80% or more is rated “A”)
6.82	CO[C@H]1CC[C@H](NC/C=C/C(=O)Nc2ccc(C(=O)c3ccc4c(-c5cc6nn(C)cc6cc5C)cccn34)cc2C#N)CC1 [Example 75, (E)-N-(2-cyano-4-(8-(2,5-dimethyl-2H-indazol-6-yl)indolizine-3-carbonyl)phenyl)-4-(((1r,4r)-4-methoxycyclohexyl)amino)but-2-enamide]	A (A binding rate of 80% or more is rated “A”)
